In patent US10913710B2, “Benzene disulfonamide for the treatment of cancer” (priority 2017, dated 2021):

Target: PDEδ (Homo sapiens (Human), UniProt O43924)
Assay: Fluorescence polarization competition binding assay: displacement titration of labeled Atorvastatin probe for KD
Details: not given
Method: Example D.2: Displacement Titrations of Labeled Atorvastatin-Probe for the Determination of KD Values
Displacement Titrations of Labeled Atorvastatin-Probe for the Determination of KD Values:
The purification was followed by size exclusion gel filtration on a Superdex 75 S26/60 column using buffer A (25 mM Tris-HCl, pH 7.5, 150 mM NaCl and 3 mM DTE).

SMILES | Kd [nM]
CC(C)(C)[Si](C)(C)Oc1ccc(CNS(=O)(=O)c2ccc(S(=O)(=O)N(Cc3ccc(Cl)cc3)C3CCCC3)cc2)cc1 [Compound 15] | 30 to 100

Same assay, conditions: fluorescence polarization assay; activity classes; read-out: KD

Kd [nM] | SMILES
100 to 1000 | O=S(=O)(c1ccc(S(=O)(=O)N(Cc2ccccn2)C2CCCO2)cc1)N(Cc1ccccn1)C1CCCO1 (stereo not shown) [Compound 1]
100 to 1000 | Nc1ccc(Br)c(CN(CC2CCNCC2)S(=O)(=O)c2ccc(S(=O)(=O)N(Cc3ccc(Cl)cc3)C3CCCC3)cc2)c1 [Compound 2, N1-(5-amino-2-bromobenzyl)-N4-(4-chlorobenzyl)-N4-cyclopentyl-N1-(piperidin-4-ylmethyl)benzene-1,4-disulfonamide]
> 1000 | CC(C)(C)OC(=O)N1CCC(CN(Cc2ccccc2)S(=O)(=O)c2ccc(S(=O)(=O)NC3CCCC3)cc2)CC1 [Compound 3]
100 to 1000 | CC(C)(C)OC(=O)N1CCC(CN(Cc2ccccc2)S(=O)(=O)c2ccc(S(=O)(=O)N(Cc3cc(Br)cc(Br)c3)C3CCCC3)cc2)CC1 [Compound 4, tert-butyl 4-(((N-benzyl-4-(N-cyclopentyl-N-(3,5-dibromobenzyl)sulfamoyl)phenyl)sulfonamido)methyl)piperidine-1-carboxylate]
30 to 100 | CNc1ncc(Br)c(CN(CC2CCCCC2)S(=O)(=O)c2ccc(S(=O)(=O)N(Cc3ccc(Cl)cc3)C3CCCC3)cc2)n1 [Compound 5, N1-((5-bromo-2-(methylamino)pyrimidin-4-yl)methyl)-N4-(4-chlorobenzyl)-N1-(cyclohexylmethyl)-N4-cyclopentylbenzene-1,4-disulfonamide]
1 to 30 | CN1CCC(CN(Cc2ccccc2)S(=O)(=O)c2ccc(S(=O)(=O)N(Cc3ccc(Cl)cc3)C3CCCC3)cc2)CC1 [Compound 6, N1-benzyl-N4-(4-chlorobenzyl)-N4-cyclopentyl-N1-((1-methylpiperidin-4-yl)methyl)benzene-1,4-disulfonamide]
30 to 100 | O=S(=O)(NCC1CCCCC1)c1ccc(S(=O)(=O)N(Cc2ccc(Cl)cc2)C2CCCC2)cc1 [Compound 8]
1 to 30 | O=S(=O)(c1ccc(S(=O)(=O)N(Cc2ccc(Cl)cc2)C2CCCC2)cc1)N(Cc1ccccc1)CC1CCCCC1 [Compound 9, N1-benzyl-N4-(4-chlorobenzyl)-N1-(cyclohexylmethyl)-N4-cyclopentylbenzene-1,4-disulfonamide]
1 to 30 | O=S(=O)(c1ccc(S(=O)(=O)N(Cc2ccc(Cl)cc2)C2CCCC2)cc1)N(CCN1CCNCC1)Cc1ccccc1 [Compound 10, N1-benzyl-N4-(4-chlorobenzyl)-N4-cyclopentyl-N1-(2-(piperazin-1-yl)ethyl)benzene-1,4-disulfonamide]
1 to 30 | O=S(=O)(c1ccc(S(=O)(=O)N(Cc2ccc(Cl)cc2)C2CCCC2)cc1)N(Cc1cnccn1)CC1CCNCC1 [Compound 11, N1-(4-chlorobenzyl)-N1-cyclopentyl-N4-(piperidin-4-ylmethyl)-N4-(pyrazin-2-ylmethyl)benzene-1,4-disulfonamide]
1 to 30 | O=S(=O)(c1ccc(S(=O)(=O)N(Cc2cnc(Cl)cn2)C2CCCC2)cc1)N(Cc1ccccc1)CC1CCNCC1 [Compound 12, N1-benzyl-N4-((5-chloropyrazin-2-yl)methyl)-N4-cyclopentyl-N1-(piperidin-4-ylmethyl)benzene-1,4-disulfonamide]
30 to 100 | O=S(=O)(NCc1ccccc1)c1ccc(S(=O)(=O)N(Cc2ccc(Cl)cc2)C2CCCC2)cc1 [Compound 13]
30 to 100 | O=S(=O)(NCc1ccc(O)cc1)c1ccc(S(=O)(=O)N(Cc2ccc(Cl)cc2)C2CCCC2)cc1 [Compound 14]
30 to 100 | O=S(=O)(c1ccc(S(=O)(=O)N(Cc2cccc(Br)c2)C2CCCC2)cc1)N(Cc1ccccc1)CC1CCNCC1 [Compound 17, N1-benzyl-N4-(3-bromobenzyl)-N4-cyclopentyl-N1-(piperidin-4-ylmethyl)benzene-1,4-disulfonamide]
100 to 1000 | O=S(=O)(c1ccc(S(=O)(=O)N(Cc2ccccc2)CC2CCNCC2)cc1)N(Cc1ccccc1)CC1CCNCC1 [Compound 18, N1,N4-dibenzyl-N1,N4-bis(piperidin-4-ylmethyl)benzene-1,4-disulfonamide]
